Results reported in ChEMBL document CHEMBL6083250, “Core Modifications of GSK3335103 toward Orally Bioavailable αvβ6 Inhibitors with Improved Synthetic Tractability” (J Med Chem, 2024).

Tests used:
[1] = in vitro; settings: PAMPA
[2] = Lipophilicity, logD of compound at pH 7.4 by chromatography; format: physicochemical; settings: buffer
[3] = Dissociation constant, pKa of compound; format: physicochemical
[4] = MRT in Wistar Han rat at 1 mg/kg, iv at 7 to 24 hrs by LC-MS/MS analysis; format: ADME, organism-based; settings: in vivo, time 7-24 hrs
[5] = Volume of distribution at steady state in Wistar Han rat at 1 mg/kg, iv at 7 to 24 hrs by LC-MS/MS analysis; format: ADME, organism-based; settings: in vivo, time 7-24 hrs, read-out: Vdss
[6] = Cmax in Wistar Han rat at 1 mg/kg, po at 7 to 24 hrs by LC-MS/MS analysis; format: ADME, organism-based; settings: in vivo, time 7-24 hrs
[7] = Oral availability in Wistar Han rat at 1 mg/kg at 7 to 24 hrs by LC-MS/MS analysis; format: ADME, organism-based; settings: in vivo, time 7-24 hrs
[8] = Unbound AUC in Wistar Han rat at 2 mg/kg, po at 7 to 24 hrs by LC-MS/MS analysis; format: ADME, organism-based; settings: in vivo, time 7-24 hrs
[9] = Kinetic solubility of compound by CAD analysis; format: physicochemical; settings: read-out: Kinetic_solubility
[10] = AUC in Wistar Han rat at 1 mg/kg, po at 7 to 24 hrs by LC-MS/MS analysis; format: ADME, organism-based; settings: in vivo, time 7-24 hrs
[11] = Unbound AUC in Wistar Han rat at 1 mg/kg, po at 7 to 24 hrs by LC-MS/MS analysis; format: ADME, organism-based; settings: in vivo, time 7-24 hrs

Compound: O=C(O)C[C@H](CN1CC[C@@H](CCc2ccc3c(n2)NCCC3)C1)c1cccc(N2CCOCC2)c1
- Papp [1]: 2.7 ×10⁻⁶ cm/s

Compound: COCCOc1cccc([C@@H](CC(=O)O)CN2CC(C(F)(F)CCc3ccc4c(n3)NCCC4)C2)c1
- chromatographic logD [2]: 3
- Papp [1]: 3.2 ×10⁻⁶ cm/s

Compound: O=C(O)C[C@H](CN1CC(CCc2ccc3c(n2)NCCC3)C1)c1cccc(N2CCOCC2)c1
- Papp [1]: < 0.3 ×10⁻⁶ cm/s

Compound: COCCOc1cccc([C@H](CC(=O)O)CN2CC[C@@](F)(CCc3ccc4c(n3)NCCC4)C2)c1
- chromatographic logD [2]: 2.9
- pKa [3]: 4.1
- MRT [4]: 3 h
- Vd [5]: 3.6 L/kg
- Cmax [6]: 530 ng/mL
- bioavailability [7]: 93%
- fAUC [8]: 280 ng·h/mL
- solubility kinetic [9]: ≥ 238 µg/mL
- Papp [1]: 14.6 ×10⁻⁶ cm/s

Compound: COc1cc([C@H](CC(=O)O)CN2CC(C(F)(F)CCc3ccc4c(n3)NCCC4)C2)ccc1F
- chromatographic logD [2]: 3.1
- pKa [3]: 4
- MRT [4]: 3.1 h
- Vd [5]: 4.6 L/kg
- AUC [10]: 881 ng·h/mL
- fAUC [11]: 135 ng·h/mL
- bioavailability [7]: 94%
- solubility kinetic [9]: ≥ 159 µg/mL
- Papp [1]: 16.3 ×10⁻⁶ cm/s

Compound: Cc1cc(C)n(-c2cccc([C@@H](CC(=O)O)CN3CC(CCCc4ccc5c(n4)NCCC5)C3)c2)n1
- Papp [1]: < 0.3 ×10⁻⁶ cm/s

Compound: COCCOc1cccc([C@@H](CC(=O)O)CN2CC(SCCc3ccc4c(n3)NCCC4)C2)c1
- chromatographic logD [2]: 2.4
- Papp [1]: 6.5 ×10⁻⁶ cm/s

Compound: Cc1cc(C)n(-c2cccc([C@H](CC(=O)O)CN3CC(CCCc4ccc5c(n4)NCCC5)C3)c2)n1
- Papp [1]: < 1 ×10⁻⁶ cm/s

Compound: COCCOc1cccc([C@H](CC(=O)O)CN2CC(C(F)(F)CCc3ccc4c(n3)NCCC4)C2)c1
- chromatographic logD [2]: 3
- pKa [3]: 3.9
- MRT [4]: 1.7 h
- Vd [5]: 3 L/kg
- Cmax [6]: 20.4 ng/mL
- AUC [10]: 95 ng·h/mL
- fAUC [11]: 38 ng·h/mL
- bioavailability [7]: 17%
- Papp [1]: 8.8 ×10⁻⁶ cm/s

Compound: COCCOc1cccc([C@H](CC(=O)O)CN2CC(SCCc3ccc4c(n3)NCCC4)C2)c1
- chromatographic logD [2]: 2.4
- pKa [3]: 4.3
- Papp [1]: 7.2 ×10⁻⁶ cm/s

Compound: O=C(O)CC(CN1CC(C(F)(F)CCc2ccc3c(n2)NCCC3)C1)c1cccc(O[C@@H]2CCOC2)c1 (mixture of isomers)
- chromatographic logD [2]: 2.8
- Papp [1]: 8.2 ×10⁻⁶ cm/s

Compound: O=C(O)CC(CN1CC(C(F)(F)CCc2ccc3c(n2)NCCC3)C1)c1cccc(O[C@H]2CCOC2)c1 (mixture of isomers)
- chromatographic logD [2]: 2.9
- Papp [1]: 6.3 ×10⁻⁶ cm/s

Compound: COc1cc(C(CC(=O)O)CN2CC(C(F)(F)CCc3ccc4c(n3)NCCC4)C2)ccc1C#N (racemic)
- chromatographic logD [2]: 2.9
- Papp [1]: 5.5 ×10⁻⁶ cm/s

Compound: COc1cc(C(CC(=O)O)CN2CC(C(F)(F)CCc3ccc4c(n3)NCCC4)C2)ccc1F (racemic)
- chromatographic logD [2]: 3.2
- MRT [4]: 3.8 h
- Vd [5]: 2.4 L/kg
- Cmax [6]: 313 ng/mL
- AUC [10]: 1370 ng·h/mL
- fAUC [11]: 212 ng·h/mL
- bioavailability [7]: 79%
- Papp [1]: 23 ×10⁻⁶ cm/s

Compound: O=C(O)CC(CN1CC(C(F)(F)CCc2ccc3c(n2)NCCC3)C1)c1cccc(N2CCOCC2)c1 (racemic)
- chromatographic logD [2]: 2.7
- Papp [1]: 5.5 ×10⁻⁶ cm/s

Compound: O=C(O)CC(CN1CC(C(F)(F)CCc2ccc3c(n2)NCCC3)C1)c1cccc(OC2CCOCC2)c1 (racemic)
- chromatographic logD [2]: 3.1
- Papp [1]: 8.9 ×10⁻⁶ cm/s

Compound: O=C(O)CC(CN1CC(C(F)(F)CCc2ccc3c(n2)NCCC3)C1)c1ccccc1 (racemic)
- chromatographic logD [2]: 3
- Papp [1]: 21 ×10⁻⁶ cm/s

Compound: O=C(O)CC(CN1CC(C(F)(F)CCc2ccc3c(n2)NCCC3)C1)c1cccc(OC2CC2)c1 (racemic)
- chromatographic logD [2]: 3.5
- Papp [1]: 39 ×10⁻⁶ cm/s

Compound: COc1cccc(C(CC(=O)O)CN2CC(C(F)(F)CCc3ccc4c(n3)NCCC4)C2)c1I (racemic)
- chromatographic logD [2]: 3
- Papp [1]: 15 ×10⁻⁶ cm/s

Compound: O=C(O)CC(CN1CC(C(F)(F)CCc2ccc3c(n2)NCCC3)C1)c1ccnc(C2CC2)c1 (racemic)
- chromatographic logD [2]: 2.5
- Papp [1]: 7.4 ×10⁻⁶ cm/s

Compound: CCOc1cccc(C(CC(=O)O)CN2CC(C(F)(F)CCc3ccc4c(n3)NCCC4)C2)c1 (racemic)
- chromatographic logD [2]: 3.4
- Papp [1]: 21 ×10⁻⁶ cm/s

Compound: COc1cc(C(CC(=O)O)CN2CC(C(F)(F)CCc3ccc4c(n3)NCCC4)C2)ccc1Cl (racemic)
- chromatographic logD [2]: 3.6
- Papp [1]: 28 ×10⁻⁶ cm/s

Compound: COCCOc1cccc(C(CC(=O)O)CN2CC(OCc3ccc4c(n3)NCCC4)C2)c1 (racemic)
- chromatographic logD [2]: 2
- pKa [3]: 4
- Papp [1]: < 0.3 ×10⁻⁶ cm/s

Compound: COc1ccc(F)c(C(CC(=O)O)CN2CC(C(F)(F)CCc3ccc4c(n3)NCCC4)C2)c1 (racemic)
- chromatographic logD [2]: 3.3
- MRT [4]: 4.2 h
- Vd [5]: 1.6 L/kg
- Cmax [6]: 739 ng/mL
- AUC [10]: 2460 ng·h/mL
- fAUC [11]: 163 ng·h/mL
- bioavailability [7]: 91%
- Papp [1]: 25 ×10⁻⁶ cm/s

Compound: O=C(O)CC(CN1CC(C(F)(F)CCc2ccc3c(n2)NCCC3)C1)c1ccnc(OC2CC2)c1 (racemic)
- chromatographic logD [2]: 2.7
- Papp [1]: 10.4 ×10⁻⁶ cm/s

Compound: COc1cccc(C(CC(=O)O)CN2CC(C(F)(F)CCc3ccc4c(n3)NCCC4)C2)c1 (racemic)
- chromatographic logD [2]: 3
- Papp [1]: 20 ×10⁻⁶ cm/s

Compound: Cc1cc(C)n(-c2cccc(C(CC(=O)O)CN3CC(C(F)(F)CCc4ccc5c(n4)NCCC5)C3)c2)n1 (racemic)
- chromatographic logD [2]: 3.3
- MRT [4]: 0.2 h
- Vd [5]: 0.7 L/kg
- Cmax [6]: 12.4 ng/mL
- AUC [10]: 14 ng·h/mL
- fAUC [11]: 0.6 ng·h/mL
- bioavailability [7]: 3%
- Papp [1]: 13 ×10⁻⁶ cm/s

Compound: O=C(O)CC(CN1CC(C(F)(F)CCc2ccc3c(n2)NCCC3)C1)c1cccc(C2CC2)c1 (racemic)
- chromatographic logD [2]: 3.7
- Papp [1]: 43 ×10⁻⁶ cm/s

Compound: O=C(O)CC(CN1CC(C(F)(F)CCc2ccc3c(n2)NCCC3)C1)c1ccc2c(c1)OCC2 (racemic)
- chromatographic logD [2]: 3
- Papp [1]: 16 ×10⁻⁶ cm/s

Compound: O=C(O)CC(CN1CC(C(F)(F)CCc2ccc3c(n2)NCCC3)C1)c1cccc2c1OCC2 (racemic)
- chromatographic logD [2]: 3.1
- Papp [1]: 19 ×10⁻⁶ cm/s

Compound: COc1ncc(C(CC(=O)O)CN2CC(C(F)(F)CCc3ccc4c(n3)NCCC4)C2)cc1C (racemic)
- chromatographic logD [2]: 2.7
- MRT [4]: 2.9 h
- Vd [5]: 1.1 L/kg
- Cmax [6]: 496 ng/mL
- AUC [10]: 1510 ng·h/mL
- fAUC [11]: 152 ng·h/mL
- bioavailability [7]: 57%
- solubility kinetic [9]: ≥ 118 µg/mL
- Papp [1]: 10.2 ×10⁻⁶ cm/s
